Assay results from ChEMBL document CHEMBL3407356, “Design, synthesis, biological evaluation and molecular modeling of dihydropyrazole sulfonamide derivatives as potential COX-1/COX-2 inhibitors” (Bioorg Med Chem Lett, 2015).

How the values were obtained:
[1] = Cytotoxicity against human 293T cells after 24 hrs by MTT assay; assay type: cell-based; conditions: HEK-293T cells
[2] = system: MCF7; test: Antiproliferative activity against human MCF7 cells after 24 hrs by MTT assay; assay type: functional, cell-based; conditions: MCF7, 24 h
[3] = target: Prostaglandin G/H synthase 1 (Homo sapiens, UniProt P23219); test: Inhibition of human recombinant COX1 by ELISA
Prostaglandin G/H synthase 1, sequence (P23219 whole entry): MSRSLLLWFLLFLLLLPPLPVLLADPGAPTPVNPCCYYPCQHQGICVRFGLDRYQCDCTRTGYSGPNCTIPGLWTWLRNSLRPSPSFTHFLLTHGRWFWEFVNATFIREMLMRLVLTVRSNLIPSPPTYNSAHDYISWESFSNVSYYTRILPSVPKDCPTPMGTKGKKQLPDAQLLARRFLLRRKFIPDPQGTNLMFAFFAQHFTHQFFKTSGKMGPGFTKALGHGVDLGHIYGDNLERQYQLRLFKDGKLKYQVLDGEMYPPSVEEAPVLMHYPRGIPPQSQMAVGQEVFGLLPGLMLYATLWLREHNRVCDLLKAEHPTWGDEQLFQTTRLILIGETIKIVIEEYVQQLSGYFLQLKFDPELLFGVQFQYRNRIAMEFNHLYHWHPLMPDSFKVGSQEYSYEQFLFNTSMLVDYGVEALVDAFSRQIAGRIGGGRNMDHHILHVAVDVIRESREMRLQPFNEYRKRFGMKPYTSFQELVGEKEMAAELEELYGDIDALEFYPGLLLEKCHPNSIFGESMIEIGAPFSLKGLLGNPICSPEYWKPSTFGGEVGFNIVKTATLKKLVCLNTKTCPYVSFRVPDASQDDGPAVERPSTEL

[4] = target: T1, Prostaglandin G/H synthase 2 (Homo sapiens, UniProt P35354); test: Inhibition of human recombinant COX2 by ELISA
T1 sequence (P35354 whole entry): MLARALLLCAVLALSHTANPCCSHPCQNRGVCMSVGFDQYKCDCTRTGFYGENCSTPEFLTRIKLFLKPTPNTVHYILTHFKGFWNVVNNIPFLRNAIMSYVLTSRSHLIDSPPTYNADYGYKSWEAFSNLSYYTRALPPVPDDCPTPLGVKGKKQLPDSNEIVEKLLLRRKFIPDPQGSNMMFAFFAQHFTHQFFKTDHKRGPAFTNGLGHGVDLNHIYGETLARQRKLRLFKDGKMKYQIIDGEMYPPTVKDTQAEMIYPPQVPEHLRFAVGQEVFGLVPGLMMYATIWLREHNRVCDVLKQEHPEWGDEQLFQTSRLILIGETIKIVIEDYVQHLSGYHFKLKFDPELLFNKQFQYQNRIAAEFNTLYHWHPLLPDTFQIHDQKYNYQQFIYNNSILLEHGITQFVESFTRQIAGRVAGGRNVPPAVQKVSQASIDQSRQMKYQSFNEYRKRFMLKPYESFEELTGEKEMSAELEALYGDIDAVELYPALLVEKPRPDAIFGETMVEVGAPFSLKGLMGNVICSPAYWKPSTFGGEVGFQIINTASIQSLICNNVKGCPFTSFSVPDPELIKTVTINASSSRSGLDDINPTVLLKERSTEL

[5] = Antiproliferative activity against mouse B16F10 cells after 24 hrs by MTT assay; assay type: functional, cell-based; conditions: B16-F10, 24 h
[6] = system: HeLa; test: Antiproliferative activity against human HeLa cells after 24 hrs by MTT assay; assay type: functional, cell-based

Structure (SMILES) | IC50 [2] | IC50 [3] | IC50 [4] | IC50 [6] | CC50 at 24 h [1] | IC50 [5]
NS(=O)(=O)c1ccc(N2N=C3c4ccccc4CCC3C2c2ccccc2)cc1 (configuration not stated) | 5.34 µM | > 100 µM | 8.34 µM | 25.5 µM | 66.9 µM | 5.01 µM
Cc1ccccc1C1C2CCc3ccccc3C2=NN1c1ccc(S(N)(=O)=O)cc1 (configuration not stated) | 8.29 µM | 99.9 µM | 3.28 µM | 30.1 µM | 70.8 µM | 2.93 µM
Cc1ccc(C2C3CCc4ccccc4C3=NN2c2ccc(S(N)(=O)=O)cc2)cc1 (configuration not stated) | 4.24 µM | 88.4 µM | 2.16 µM | 9.86 µM | 63.6 µM | 17.1 µM
NS(=O)(=O)c1ccc(N2N=C3c4ccccc4CCC3C2c2ccccc2F)cc1 (configuration not stated) | 13.2 µM | > 100 µM | 11.9 µM | 37.2 µM | 57.9 µM | 3.18 µM
NS(=O)(=O)c1ccc(N2N=C3c4ccccc4CCC3C2c2cccc(F)c2)cc1 (configuration not stated) | 59.1 µM | > 100 µM | 4.83 µM | 5.06 µM | 57.9 µM | 11.2 µM
NS(=O)(=O)c1ccc(N2N=C3c4ccccc4CCC3C2c2ccc(F)cc2)cc1 (configuration not stated) | 6.89 µM | > 100 µM | 15.3 µM | 22.4 µM | 59.8 µM | 3.06 µM
NS(=O)(=O)c1ccc(N2N=C3c4ccccc4CCC3C2c2ccccc2Cl)cc1 (configuration not stated) | 25.9 µM | > 100 µM | 4.92 µM | 13.7 µM | 65.3 µM | 20.1 µM
NS(=O)(=O)c1ccc(N2N=C3c4ccccc4CCC3C2c2ccccc2Br)cc1 (configuration not stated) | 5.83 µM | > 100 µM | 12.7 µM | 7.21 µM | 61.1 µM | 3.56 µM
NS(=O)(=O)c1ccc(N2N=C3c4ccccc4CCC3C2c2ccc(Br)cc2)cc1 (configuration not stated) | 36.5 µM | > 100 µM | 26.3 µM | 6.31 µM | 69.3 µM | 28.8 µM
NS(=O)(=O)c1ccc(N2N=C3c4ccccc4CCC3C2c2ccc(C(F)(F)F)cc2)cc1 (configuration not stated) | 33.9 µM | > 100 µM | 18.3 µM | 11.2 µM | 55.2 µM | 5.72 µM
NS(=O)(=O)c1ccc(N2N=C3c4ccccc4CCC3C2c2ccc(Cl)cc2Cl)cc1 (configuration not stated) | 13.7 µM | > 100 µM | 32.3 µM | 3.57 µM | 64 µM | 53.2 µM
NS(=O)(=O)c1ccc(N2N=C3c4ccccc4CCC3C2c2c(F)cccc2Cl)cc1 (configuration not stated) | 24.4 µM | 99.8 µM | 3.66 µM | 5.28 µM | 68.3 µM | 37.4 µM
NS(=O)(=O)c1ccc(N2N=C3c4ccccc4OCC3C2c2ccccc2F)cc1 (configuration not stated) | 30.5 µM | > 100 µM | 7.24 µM | 9.87 µM | 70.5 µM | 35.2 µM
NS(=O)(=O)c1ccc(N2N=C3c4ccccc4OCC3C2c2ccccc2Cl)cc1 (configuration not stated) | 23.9 µM | 86.8 µM | 2.28 µM | 13.2 µM | 75 µM | 12.1 µM
NS(=O)(=O)c1ccc(N2N=C3c4ccccc4OCC3C2c2ccc(Cl)cc2)cc1 (configuration not stated) | 28 µM | > 100 µM | 8.24 µM | 7.73 µM | 61.4 µM | 3.76 µM
NS(=O)(=O)c1ccc(N2N=C3c4ccccc4OCC3C2c2ccc(Br)cc2)cc1 (configuration not stated) | 46 µM | > 100 µM | 6.88 µM | 8.4 µM | 63.2 µM | 7.3 µM
NS(=O)(=O)c1ccc(N2N=C3c4ccccc4OCC3C2c2c(F)cccc2Cl)cc1 (configuration not stated) | 40.5 µM | > 100 µM | 16.3 µM | 7.76 µM | 66.2 µM | 8.49 µM
Cc1ccc(-c2cc(C(F)(F)F)nn2-c2ccc(S(N)(=O)=O)cc2)cc1 [CELECOXIB] | 5.94 µM |  |  | 7.35 µM | 72.4 µM | 4.56 µM
COc1cc2ncnc(Nc3ccc(F)c(Cl)c3)c2cc1OCCCN1CCOCC1 [GEFITINIB] |  |  |  |  | 52 µM | 

Further lines, with some results ahead:

IC50 [2] | IC50 [3] | IC50 [4] | IC50 [6] | Structure (SMILES) | CC50 at 24 h [1] | IC50 [5]
29.4 µM | 91.5 µM | 2.48 µM | 18 µM | Cc1cccc(C2C3CCc4ccccc4C3=NN2c2ccc(S(N)(=O)=O)cc2)c1 (configuration not stated) | 67.2 µM | 9.06 µM
59.1 µM | 96.2 µM | 2.63 µM | 14.4 µM | COc1ccccc1C1C2CCc3ccccc3C2=NN1c1ccc(S(N)(=O)=O)cc1 (configuration not stated) | 67.2 µM | 11.8 µM
10.4 µM | 85.5 µM | 1.12 µM | 19.1 µM | COc1cccc(C2C3CCc4ccccc4C3=NN2c2ccc(S(N)(=O)=O)cc2)c1 (configuration not stated) | 68.2 µM | 1.78 µM
53.5 µM | 100 µM | 3.48 µM | 11.7 µM | NS(=O)(=O)c1ccc(N2N=C3c4ccccc4CCC3C2c2cccc(Br)c2)cc1 (configuration not stated) | 52.6 µM | 28 µM
11 µM | 86.2 µM | 1.76 µM | 4.82 µM | NS(=O)(=O)c1ccc(N2N=C3c4ccccc4CCC3C2c2cccc(O)c2)cc1 (configuration not stated) | 69.2 µM | 33.3 µM
41.2 µM | 59.4 µM | 0.46 µM | 36.7 µM | Cc1ccccc1C1C2COc3ccccc3C2=NN1c1ccc(S(N)(=O)=O)cc1 (configuration not stated) | 64.8 µM | 22.2 µM
42.9 µM | 68.5 µM | 0.33 µM | 13.9 µM | COc1ccccc1C1C2COc3ccccc3C2=NN1c1ccc(S(N)(=O)=O)cc1 (configuration not stated) | 83.2 µM | 10.2 µM
20.2 µM | 78.1 µM | 1.02 µM | 7.29 µM | COc1ccc(C2C3COc4ccccc4C3=NN2c2ccc(S(N)(=O)=O)cc2)cc1 (configuration not stated) | 69.5 µM | 15.8 µM
27.8 µM | 90.2 µM | 1.26 µM | 2.94 µM | NS(=O)(=O)c1ccc(N2N=C3c4ccccc4OCC3C2c2ccccc2Br)cc1 (configuration not stated) | 81.6 µM | 12 µM
46.8 µM | 96.3 µM | 2.74 µM | 17.5 µM | NS(=O)(=O)c1ccc(N2N=C3c4ccccc4OCC3C2c2ccc(Cl)cc2Cl)cc1 (configuration not stated) | 57.1 µM | 4.76 µM
